Assay results published in patent publication US20220146526A1, “METHOD FOR EVALUATING SAMPLE, ANALYSIS METHOD, METHOD FOR DETECTING DEGRADED SAMPLE, MARKER FOR DETECTING DEGRADED BLOOD PLASMA SAMPLE, AND MARKER FOR DETECTING DEGRADED SERUM SAMPLE” (SHIMADZU CORPORATION, priority 2019, published 2022).

Tests used:
Assay type in all cases: physicochemical, human
[1] = GC/MS of serum sample: time from blood collection to centrifugation (Table G); details: blood collection to centrifugation; for Rate of increase or decrease: detection intensity relative to 1 at 15 minutes; for Increase or decrease: detection intensity
Method: (§1) After standing, the blood sample was subjected to centrifugation under a condition of room temperature, 3500 rpm, and 5 minutes. […] After centrifugation, the blood-collecting vessel was left to stand at room temperature, and the serum was isolated during this time. Here, in order to investigate how the detection intensity of molecules contained in the sample was affected in cases where the time during which the blood-collecting vessel was left at room temperature was set to 1 hour and 6 hours as compared to that in a case where the time was set to 30 minutes, preparations were performed under the respective conditions of 30 minutes, 1 hour, and 6 hours. The obtained serum sample was frozen and stored. Here, in order to investigate how the detection intensity of molecules contained in the sample was affected in cases where freezing and thawing was performed 4 times, 6 times, and 10 times after freezing as compared to that in a case where freezing and thawing was performed 2 times after freezing, freezing and thawing was performed under the respective conditions of 2, 4, 6, and 10 times.
(§2) Frozen blood plasma samples and serum samples were subjected to GC/MS or LC/MS. In GC/MS, the blood plasma samples and serum samples were subjected to methoxymation and trimethylsilylation and then introduced to GC-MS.
(§3) GC/MS was conducted using GCMS·TQ8040 (Shimadzu Corporation) that was a GC·MS equipped with AOC·20i (Shimadzu Corporation) as an autosampler.
(§4) Column: BPX5 (inner diameter of 0.25 mm, length of 30 m, and film thickness of 0.25 μm) (SGE)
(§5) Column temperature: maintained at 60° C. for 2 minutes, then raised at 15° C./min, and maintained at 330° C. for 3 minutes.
(§6) Inlet temperature: 250° C.
(§7) Carrier gas control mode: constant linear velocity of 39.0 cm/sec
(§8) Sample introduction method: split (split ratio of 30:1) Injection volume: 1 μL
(§9) Ionization method: electron ionization
(§10) Ionization current: 60 μA
(§11) Interface temperature: 280° C.
(§12) Ion source temperature: 200° C.
(§13) Mode: multiple reaction monitoring (MRM)
The rate of increase or decrease in Table G is the value of detection intensity relative to 1 that is the detection intensity in a case where the time from blood collection to centrifugation is set to 15 minutes.

[2] = GC/MS of serum sample: number of times of freezing and thawing (Table I); design: key to Rate of increase or decrease / Rate of increase or decrease (first value, increase): detection intensity relative to 2 freeze-thaw cycles = 1; details: for Rate of increase or decrease: detection intensity relative to 1 at 2 times; for Number of times when compound is affected: detection intensity changed by 30% or more vs 2 times of freezing and thawing
Method: as §1, §2, §3, §4, §5, §6, §7, §8, §9, §10, §11, §12, §13
The rate of increase or decrease in Table I is the value of detection intensity relative to 1 that is the detection intensity in a case where the number of times of freezing and thawing is set to 2 times.

[3] = GC/MS of serum sample: time from centrifugation to isolation (Table H); design: key to Rate of increase or decrease / Rate of increase or decrease (first value, increase): detection intensity relative to 1 at 30 min centrifugation-to-isolation; details: for Increase or decrease: detection intensity; for Rate of increase or decrease: detection intensity relative to 1 at 30 minutes
Method: as §1, §2, §3, §4, §5, §6, §7, §8, §9, §10, §11, §12, §13
The rate of increase or decrease in Table H is the value of detection intensity relative to 1 that is the detection intensity in a case where the time from centrifugation to isolation is set to 30 minutes.

[4] = LC/MS of serum sample: number of times of freezing and thawing (Table M); design: key to Rate of increase or decrease: detection intensity relative to 1 at 2 freeze-thaw cycles; details: for Number of times when compound is affected / Increase or decrease: serum sample, LC/MS; for Number of times when compound is affected: detection intensity changed by 30% or more vs 2 times of freezing and thawing; for Increase or decrease: detection intensity vs 2 times of freezing and thawing
Method: as §1, §2
Analysis column: Discovery HS F5-3 (inner diameter of 2.1 mm, length of 150 mm, film thickness of 3 μm) (Sigma-Aldrich)
Column temperature: 40° C.
(A) 0.1% formic acid (dissolved in water)
(B) 0.1% formic acid (dissolved in acetonitrile)
Flow velocity: 0.25 mL/min
Ionization method: electrospray
Temperature: • Desolvation Line (DL) temperature: 250° C. • Heat block temperature: 400° C. • Interface temperature: 300° C.
Gas flow rate: • Nebulizer gas flow rate: 3.0 L/min • Drying gas flow rate: 10.0 L/min • Heating gas flow rate: 10.0 L/min
as §13
The rate of increase or decrease in Table M is the value of detection intensity relative to 1 that is the detection intensity in a case where the number of times of freezing and thawing is set to 2 times.

[5] = serum, GC/MS, freezing and thawing 6 times
[6] = detection intensity, serum, GC/MS, freezing and thawing 6 times vs 2 times
[7] = serum, GC/MS, freezing and thawing 4 times
[8] = detection intensity, serum, GC/MS, freezing and thawing 4 times vs 2 times
[9] = 10 times of freezing and thawing
[10] = serum sample, GC/MS, detection intensity vs 2 times of freezing and thawing
[11] = 6 times of freezing and thawing, detection intensity relative to 1 at 2 times
[12] = 10 times of freezing and thawing, detection intensity relative to 1 at 2 times

CC(C)C(=O)C(=O)O [2-Ketoisovaleric acid]
Rate of increase or decrease ([1]; after 8 hours): 0.67
Increase or decrease ([1]; after 8 hours vs 15 minutes): Decrease

NCCC(=O)O [3-Aminopropionic acid (β-alanine), 3-Aminopropionic acid]
Rate of increase or decrease ([1]; after 8 hours): 1.46
Increase or decrease ([1]; after 8 hours vs 15 minutes): Increase

Nc1c(O)cccc1C(=O)O [3-Hydroxyanthranyl acid]
Rate of increase or decrease ([1]; after 4 hours): 0.59
Increase or decrease ([1]; after 4 hours vs 15 minutes): Decrease
Rate of increase or decrease [2, 5]: 1.34
Increase or decrease [2, 6]: Increase

CC(C)(O)CC(=O)O [3-Hydroxyisovaleric acid]
Rate of increase or decrease ([1]; after 12 hours): 1.35
Increase or decrease ([1]; after 12 hours vs 15 minutes): Increase

O=C(O)CCO [3-Hydroxypropionic acid]
Increase or decrease ([3]; after 6 hours vs 30 minutes): Different from individual
Rate of increase or decrease (second value, decrease) ([3]; different from individual to individual, individuals with decrease, relative to 1 at 30 minutes, after 6 hours): 0.65
Rate of increase or decrease (first value, increase) ([3]; different from individual to individual, individuals with increase, relative to 1 at 30 minutes, after 6 hours): 1.91
Rate of increase or decrease [2, 7]: 0.55
Increase or decrease [2, 8]: Decrease

O=C(O)c1ccc(CO)o1 [5-Hydroxymethyl-2-furancarboxylic acid]
Rate of increase or decrease ([3]; after 1 hour): 1.71
Increase or decrease ([3]; after 1 hour vs 30 minutes): Increase

CC(=O)NCC(=O)O [Acetylglycine]
Rate of increase or decrease ([1]; after 4 hours): 0.68
Increase or decrease ([1]; after 4 hours vs 15 minutes): Decrease

O=C[C@H](O)[C@H](O)[C@H](O)[C@H](O)CO [Allose]
Rate of increase or decrease [2, 5]: 0.62
Increase or decrease [2, 6]: Decrease

CCCCCCCCCC(=O)O [Decanoic acid]
Rate of increase or decrease ([1]; after 8 hours): 0.69
Increase or decrease ([1]; after 8 hours vs 15 minutes): Decrease

O=C(O)[C@H](O)[C@@H](O)[C@H](O)[C@H](O)CO [Gluconic acid]
Increase or decrease ([1]; after 12 hours vs 15 minutes): Increase

N[C@H]1C(O)O[C@H](CO)[C@@H](O)[C@@H]1O (some centres unmarked) [Glucosamine]
Rate of increase or decrease ([3]; after 6 hours): 1.69
Increase or decrease ([3]; after 6 hours vs 30 minutes): Increase
Rate of increase or decrease [2, 9]: 2.43
Number of times when compound is affected ([2]; serum sample, GC/MS): 10 times
Increase or decrease [2, 10]: Increase

O=C(O)CCCC(=O)O [Glutaric acid]
Rate of increase or decrease ([1]; after 8 hours): 1.39
Increase or decrease ([1]; after 8 hours vs 15 minutes): Increase

NO [Hydroxylamine]
Rate of increase or decrease ([3]; after 6 hours): 1.87
Increase or decrease ([3]; after 6 hours vs 30 minutes): Increase
Rate of increase or decrease [2, 9]: 2.31
Number of times when compound is affected ([2]; serum sample, GC/MS): 10 times
Increase or decrease [2, 10]: Increase

O[C@H]1[C@H](O)[C@@H](O)[C@H](O)[C@@H](O)[C@H]1O [Inositol]
Rate of increase or decrease ([1]; after 8 hours): 1.46
Increase or decrease ([1]; after 8 hours vs 15 minutes): Increase

CCCCCCCCCCCCCCCCC(=O)O [Margaric acid, margaric acid]
Rate of increase or decrease [2, 9]: 1.35
Number of times when compound is affected ([2]; serum sample, GC/MS): 10 times
Increase or decrease [2, 10]: Increase

OC[C@@H](O)[C@@H](O)CO [Meso-erythritol]
Rate of increase or decrease ([1]; after 8 hours): 0.66
Increase or decrease ([1]; after 8 hours vs 15 minutes): Decrease
Rate of increase or decrease [2, 9]: 0.69
Number of times when compound is affected ([2]; serum sample, GC/MS): 10 times
Increase or decrease [2, 10]: Decrease

CSCC[C@H](N)C(=O)O [Methionine, methionine]
Rate of increase or decrease [4, 11]: 0.69
Number of times when compound is affected [4]: 6 times
Increase or decrease [4]: Decrease

CC(=O)N[C@@H](CCC(N)=O)C(=O)O [N-acetylglutamine]
Rate of increase or decrease ([3]; after 6 hours): 1.58
Increase or decrease ([3]; after 6 hours vs 30 minutes): Increase
Rate of increase or decrease [2, 9]: 2.17
Number of times when compound is affected ([2]; serum sample, GC/MS): 10 times
Increase or decrease [2, 10]: Increase

CCCCCCCC/C=C\CCCCCCCC(N)=O [Oleamide]
Rate of increase or decrease [2, 7]: 2.08
Increase or decrease [2, 8]: Increase

CCCCCCCCC(=O)O [Pelargonic acid, pelargonic acid]
Rate of increase or decrease [2, 9]: 0.67
Number of times when compound is affected ([2]; serum sample, GC/MS): 10 times
Increase or decrease [2, 10]: Decrease

N[C@@H](Cc1ccccc1)C(=O)O [Phenylalanine, phenylalanine]
Rate of increase or decrease [4, 12]: 0.57
Number of times when compound is affected [4]: 10 times
Increase or decrease [4]: Decrease

Cc1ncc(CO)c(CN)c1O [Pyridoxamine]
Rate of increase or decrease ([1]; after 4 hours): 1.52
Increase or decrease ([1]; after 4 hours vs 15 minutes): Increase
Rate of increase or decrease [2, 9]: 0.61
Number of times when compound is affected ([2]; serum sample, GC/MS): 10 times
Increase or decrease [2, 10]: Decrease

CNCC(=O)O [Sarcosine, sarcosine]
Number of times when compound is affected ([2]; serum sample, GC/MS): 10 times
Increase or decrease [2, 10]: Increase

OC[C@@H](O)[C@@H](O)[C@H](O)[C@@H](O)CO [Sorbitol]
Rate of increase or decrease ([1]; after 8 hours): 1.54
Increase or decrease ([1]; after 8 hours vs 15 minutes): Increase
Rate of increase or decrease [2, 9]: 0.61
Number of times when compound is affected ([2]; serum sample, GC/MS): 10 times
Increase or decrease [2, 10]: Decrease

C[C@@H](O)[C@H](N)C(=O)O [Threonine, threonine]
Rate of increase or decrease ([4]; 6 times of freezing and thawing, relative to 1 at 2 times, different from individual to individual, first value (increase)): 1.31
Rate of increase or decrease ([4]; 6 times of freezing and thawing, relative to 1 at 2 times, different from individual to individual, second value (decrease)): 0.69
Number of times when compound is affected [4]: 6 times
Increase or decrease [4]: Different from individual

N[C@@H](Cc1ccc(O)cc1)C(=O)O [Tyrosine, tyrosine]
Rate of increase or decrease [4, 11]: 0.60
Number of times when compound is affected [4]: 6 times
Increase or decrease [4]: Decrease

CC(C)[C@H](N)C(=O)O [Valine, valine]
Rate of increase or decrease [4, 12]: 0.56
Number of times when compound is affected [4]: 10 times
Increase or decrease [4]: Decrease

OC[C@@H](O)[C@H](O)[C@@H](O)CO [Xylitol]
Rate of increase or decrease ([1]; after 8 hours): 0.62
Increase or decrease ([1]; after 8 hours vs 15 minutes): Decrease
